Data: US8349791B2, “Polypeptides that bind membrane proteins” (The Trustees of the University of Pennsylvania, priority 2006, dated 2013)
Peptide text beside a SMILES is read from it.

What was measured:
[1] = TOXCAT homodimerization in bacterial membranes; type: cell-based, Escherichia coli; settings: ToxR fusion in E. coli
Description: Both the affinity and specificity of the membrane protein-binding peptides for their targets when coexpressed in bacterial membranes were assessed with a DN-“TOXCAT” assay (FIGS. 3a-3c). In TOXCAT, a TM sequence of interest is fused to a ToxR protein (TM-ToxR) that binds to the ctx promoter as a dimer, which induces expression of chloramphenicol acetyltransferase (CAT) (W. P. Russ, D. M. Engelman, Proc. Natl. Acad. Sci. U.S.A. 96, 863 (1999); D. Langosch, B. Brosig, H. Kolmar, H. J. Fritz, J. Mol. Biol. 263, 525 (1996)). In the DN assay, the TM1-ToxR fusion protein is coexpressed with a second fusion protein (TM2-ToxR*) containing a nonfunctional mutant of the ToxR domain. TM-driven dimerization leads to a ToxR-ToxR* dimer that is unable to bind the ctx promoter or to induce CAT synthesis (FIG. 3a). The resulting decrease in CAT activity can be used to monitor the formation of a heterodimeric TM complex. In principle, this assay could be accomplished by adding an exogenous synthetic peptide (D. Gerber, N. Sal-Man, Y. Shai, J. Mol. Biol. 339, 243 (2004)); however, it is difficult to assure that different peptides will be similarly inserted into the Escherichia coli inner membrane. […]

[2] = Trp fluorescence, phospholipid bilayer insertion; type: physicochemical; settings: for insertion into phospholipid vesicles: FIG. 9
Description: Fluorescence intensity was measured on an ATF 105 spectrofluorometer (Aviv Biomedical, Inc., Lakewood, N.J.) using a 0.3 cm path length cuvette. Small unilamellar vesicles composed of 1-Palmitoyl-2-Oleoyl-sn-Glycero-3-Phosphocholine and 1-Palmitoyl-2-Oleoyl-sn-Glycero-3-[Phospho-rac-(1-glycerol)] (7:3) were prepared using standard ethanol dilution (Batzri S & Korn E D. Biochim. Biophys. Acta. 298, 1015-1019 (1973)): phospholipids were initially dissolved in 15 μl ethanol and then diluted to 1 ml with buffer (20 mM HEPES, pH=7.5). Samples with 1 μM anti-αIIb in the presence of 0, 100, and 500 μM total phospholipids were prepared. Excitation of 280 nm was used for emission scans ranging from 410 nm to 300 nm. Excitation and emission slit widths are 2.5 nm and 1.5 nm, respectively. An average time of 1.0 second was used.
See FIG. 9, which provides the emission scans of anti-αIIb (1 μM) and of anti-αV in the presence of three different concentrations of phospholipids. Provided are emission scans of 1 μM anti-αIIb (FIG. 9a) and 1 μM anti-αV (FIG. 9b) in presence of 0 μM (*), 100 μM (†), and 500 μM (^) of phospholipids (POPC:POPG=7:3, excitation wavelength=280 nm). The emission maximum of the Trp residue in anti-αIIb occurs at 353 nm, consistent with a fully-exposed Trp residue in the absence of membranes. In the presence of phospholipids vesicles, the emission maximum blue-shifts by 31 nm, indicating a transfer to a membrane-like environment.

αIIbβ3 = target: T1, αIIbβ3 (Homo sapiens, UniProt P08514); test: Force spectroscopy (laser tweezers), platelets and fibrinogen-coated beads; type: cell-based
T1 construct: trapped from a suspension of gel filtered human platelets or CHO cells; endogenous in cells; host or cells: gel-filtered human platelets
T1 sequence (P08514 891-1039 limits assumed): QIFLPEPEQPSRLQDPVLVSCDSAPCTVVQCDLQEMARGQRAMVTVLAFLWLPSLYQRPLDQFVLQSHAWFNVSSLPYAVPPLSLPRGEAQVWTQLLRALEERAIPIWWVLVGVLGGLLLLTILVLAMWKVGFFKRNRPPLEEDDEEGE
T1 sequence (P08514 32-887 partner limits assumed): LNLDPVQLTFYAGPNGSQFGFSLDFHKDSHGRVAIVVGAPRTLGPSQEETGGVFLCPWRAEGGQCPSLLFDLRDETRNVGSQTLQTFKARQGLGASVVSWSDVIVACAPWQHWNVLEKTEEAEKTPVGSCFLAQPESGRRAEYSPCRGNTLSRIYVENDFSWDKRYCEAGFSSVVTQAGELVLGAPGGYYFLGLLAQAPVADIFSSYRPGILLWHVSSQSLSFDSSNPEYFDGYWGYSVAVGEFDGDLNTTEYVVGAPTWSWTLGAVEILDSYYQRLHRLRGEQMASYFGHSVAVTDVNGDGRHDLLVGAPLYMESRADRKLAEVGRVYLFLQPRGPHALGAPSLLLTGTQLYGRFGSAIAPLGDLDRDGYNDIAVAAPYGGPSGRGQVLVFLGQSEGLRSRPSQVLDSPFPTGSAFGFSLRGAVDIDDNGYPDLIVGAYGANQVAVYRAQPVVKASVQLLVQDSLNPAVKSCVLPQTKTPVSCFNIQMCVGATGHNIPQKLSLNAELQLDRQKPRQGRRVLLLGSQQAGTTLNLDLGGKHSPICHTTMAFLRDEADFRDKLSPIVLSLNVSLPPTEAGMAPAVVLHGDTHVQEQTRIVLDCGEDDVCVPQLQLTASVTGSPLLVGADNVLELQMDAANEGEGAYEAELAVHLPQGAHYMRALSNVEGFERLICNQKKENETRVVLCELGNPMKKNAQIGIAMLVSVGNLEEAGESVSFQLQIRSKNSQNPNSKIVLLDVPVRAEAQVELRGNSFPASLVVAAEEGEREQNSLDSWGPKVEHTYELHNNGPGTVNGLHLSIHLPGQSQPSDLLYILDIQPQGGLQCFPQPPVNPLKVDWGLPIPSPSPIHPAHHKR
T1 sequence (P05106 27-788 partner): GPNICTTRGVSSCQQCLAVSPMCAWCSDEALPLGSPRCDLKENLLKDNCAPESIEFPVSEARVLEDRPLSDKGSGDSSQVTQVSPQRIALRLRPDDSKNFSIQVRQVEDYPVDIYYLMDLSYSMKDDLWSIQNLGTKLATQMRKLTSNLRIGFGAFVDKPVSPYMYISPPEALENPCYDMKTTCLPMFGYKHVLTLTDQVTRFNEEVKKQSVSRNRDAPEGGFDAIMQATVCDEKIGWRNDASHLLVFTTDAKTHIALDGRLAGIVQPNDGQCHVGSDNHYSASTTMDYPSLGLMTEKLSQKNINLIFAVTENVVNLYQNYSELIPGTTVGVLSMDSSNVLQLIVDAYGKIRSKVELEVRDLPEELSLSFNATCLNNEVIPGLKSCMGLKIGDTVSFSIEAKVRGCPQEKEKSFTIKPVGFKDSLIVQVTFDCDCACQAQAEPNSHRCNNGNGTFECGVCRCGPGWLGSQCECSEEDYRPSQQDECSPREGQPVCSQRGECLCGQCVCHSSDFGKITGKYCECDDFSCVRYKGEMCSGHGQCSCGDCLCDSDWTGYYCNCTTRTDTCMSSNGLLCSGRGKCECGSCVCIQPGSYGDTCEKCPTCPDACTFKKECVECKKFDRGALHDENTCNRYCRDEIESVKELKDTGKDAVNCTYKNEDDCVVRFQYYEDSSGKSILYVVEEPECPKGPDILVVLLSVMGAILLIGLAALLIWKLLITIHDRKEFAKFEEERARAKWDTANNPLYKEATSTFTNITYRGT
Excerpt: (§1) Litvinov R I et al. Proc. Natl. Acad. Sci. USA. 99, 7426-31 (2002). Recombinant human OPN, prepared as previously described (Bennett J S et al. J. Biol. Chem. 272, 8137-40 (1997)) or purified human fibrinogen was covalently bound to 0.93 μm carboxylate-modified latex beads. Individual cells, trapped from a suspension of gel filtered human platelets or CHO cells, were manually attached to 5 μm diameter silica pedestals coated with polylysine. An OPN- or fibrinogen-coated bead, trapped by the laser light, was then brought into proximity of an immobilized cell, oscillated at 50 Hz, and then brought into repeated intermittent contact with the cell by micromanipulation. Data collection was initiated at the first contact between the bead and the cell. Rupture forces following repeated contacts were collected for periods of several seconds to one minute. Individual forces measured during each contact-detachment cycle were collected into 10 pN-wide bins. The number of events in each bin was then plotted against the average force for that bin after normalizing for the total number of interaction cycles. Thus, the percentage of events in a particular force range (bin) represents the probability of rupture events at that tension. Optical artifacts observed with or without trapped latex beads produce signals that appeared as forces below 10 pN. Therefore, rupture forces in this range were not considered when the data were analyzed. The polypeptide was added from a DMSO solution such that the final concentration of DMSO was no greater than 0.5%. All controls also had 0.5% DMSO in the buffer.
Beads coated with fibrinogen were brought into intermittent contact with immobilized platelets in the presence or absence of anti-αIIb and the rupture force was measured. Litvinov R I et al. J. Biol. Chem. 278, 51285-51290 (2003). In the absence of anti-αIIb, the binding probability of platelets and fibrinogen-coated beads decreased exponentially (FIG. 5a) with increasing force, consistent with a non-specific interaction of the beads with the platelet surface. Litvinov R I (2003). […]

αVβ3 = target: T2, αVβ3 (Homo sapiens, UniProt P06756); test: Force spectroscopy (laser tweezers), platelets and osteopontin-coated beads; type: cell-based
T2 construct: Platelets express a second integrin with a β3 subunit, αVβ3; endogenous in cells; host or cells: gel-filtered human platelets
T2 sequence (P06756 891-1048 limits assumed): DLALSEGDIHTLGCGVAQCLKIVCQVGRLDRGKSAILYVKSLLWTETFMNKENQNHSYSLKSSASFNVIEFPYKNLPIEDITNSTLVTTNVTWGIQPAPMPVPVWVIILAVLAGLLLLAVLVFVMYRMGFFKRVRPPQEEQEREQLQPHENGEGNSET
T2 sequence (P06756 31-889 partner limits assumed): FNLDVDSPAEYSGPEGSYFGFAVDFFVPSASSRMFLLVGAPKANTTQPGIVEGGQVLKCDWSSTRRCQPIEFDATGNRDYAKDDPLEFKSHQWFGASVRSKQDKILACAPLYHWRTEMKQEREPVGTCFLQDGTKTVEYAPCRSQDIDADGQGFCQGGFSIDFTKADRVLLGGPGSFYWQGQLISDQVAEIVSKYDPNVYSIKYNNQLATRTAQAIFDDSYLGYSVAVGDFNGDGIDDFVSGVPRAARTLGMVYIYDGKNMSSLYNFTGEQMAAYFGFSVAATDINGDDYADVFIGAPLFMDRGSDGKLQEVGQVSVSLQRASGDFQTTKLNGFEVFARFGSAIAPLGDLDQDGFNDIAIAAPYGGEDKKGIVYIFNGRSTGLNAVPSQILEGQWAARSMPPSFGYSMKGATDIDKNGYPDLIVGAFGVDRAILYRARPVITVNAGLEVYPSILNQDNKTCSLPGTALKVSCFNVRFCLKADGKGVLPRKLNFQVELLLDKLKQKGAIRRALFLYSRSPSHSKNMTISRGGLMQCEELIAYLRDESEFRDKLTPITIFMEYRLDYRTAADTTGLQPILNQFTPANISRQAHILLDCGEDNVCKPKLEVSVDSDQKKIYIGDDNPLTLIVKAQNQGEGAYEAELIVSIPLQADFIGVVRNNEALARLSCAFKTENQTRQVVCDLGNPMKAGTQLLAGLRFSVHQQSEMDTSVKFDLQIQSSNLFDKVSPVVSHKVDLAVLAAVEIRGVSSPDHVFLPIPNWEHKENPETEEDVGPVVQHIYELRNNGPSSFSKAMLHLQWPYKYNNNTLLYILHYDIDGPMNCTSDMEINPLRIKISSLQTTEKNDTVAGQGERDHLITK
T2 sequence (P05106 27-788 partner): as the sequence (P05106 27-788 partner) above
Excerpt: as §1
Platelets express a second integrin with a β3 subunit, αVβ3, which can bind the matrix protein osteopontin when platelets are stimulated by Mn^2+ or ADP. Bennett J S et al. J. Biol. Chem. 272, 8137-8140 (1997). To test the ability of anti-αIIb to discriminate between αIIbβ3 and αVβ3, the rupture force between platelets and osteopontin-coated beads in the presence and absence of anti-αIIb was measured.

| Molecule | homodimer formation in bacterial membranes (CAT signal, words) [1] | blue-shift of Trp emission maximum in the presence of phospholipid vesicles ([2]; 1 μM peptide, POPC:POPG 7:3 vesicles) | emission maximum of the Trp residue in the absence of membranes ([2]; 1 μM peptide, excitation 280 nm, 0 μM phospholipids) | insertion into phospholipid vesicles [2] | peak of rupture force between platelets and fibrinogen-coated beads (αIIbβ3; 0.5 μM polypeptide) | rupture force peak after pre-incubation with αIIbβ3 antibody abciximab (αIIbβ3; 0.5 μM polypeptide) | rupture force, platelets and osteopontin-coated beads (αVβ3; 0.5 μM polypeptide) | rupture force / activation, platelets and fibrinogen-coated beads (αIIbβ3) | peak of rupture force between platelets and osteopontin-coated beads (αVβ3) | rupture force peak in the presence of αvβ3 antagonist XJ735 (αVβ3) |
| --- | --- | --- | --- | --- | --- | --- | --- | --- | --- | --- |
| CC[C@H](C)[C@H](NC(=O)[C@H](Cc1ccccc1)NC(=O)[C@H](Cc1ccccc1)NC(=O)[C@@H]1CCCN1C(=O)[C@H](CC(C)C)NC(=O)[C@H](CC(C)C)NC(=O)[C@H](CCSC)NC(=O)[C@@H](NC(=O)[C@H](Cc1ccc(O)cc1)NC(=O)[C@H](C)NC(=O)[C@H](CCCCN)NC(=O)[C@@H](N)CCCCN)C(C)C)C(=O)NCC(=O)N[C@@H](CC(C)C)C(=O)N[C@@H](CC(C)C)C(=O)N[C@@H](CC(C)C)C(=O)NCC(=O)N[C@@H](CC(C)C)C(=O)N[C@H](C(=O)N[C@@H](Cc1ccccc1)C(=O)NCC(=O)NCC(=O)N[C@@H](C)C(=O)N[C@@H](Cc1ccccc1)C(=O)N[C@@H](Cc1c[nH]c2ccccc12)C(=O)NCC(=O)N1CCC[C@H]1C(=O)N[C@@H](C)C(=O)N[C@@H](CCCNC(=N)N)C(=O)N[C@@H](Cc1c[nH]cn1)C(=O)N[C@@H](CC(C)C)C(=O)N[C@@H](CCCCN)C(=O)N[C@@H](CCCCN)C(N)=O)[C@@H](C)CC [anti-αIIb] (H-KKAYVMLLPFFIGLLLGLIFGGAFWGPARHLKK-NH2; N-terminus assumed) | affinity similar to that of the TM domain of glycophorin A (GpA) | 31 nm | 353 nm | successfully insert | ~70 pN | eliminated the rupture force peak | No peak of rupture force was observed | – | – | – |
| AYVFILLSFILGTLLGFLVMFWA [anti-αV] | affinity similar to that of the TM domain of glycophorin A (GpA) | – | – | successfully insert | – | – | – | no peak of specific rupture force was observed | 40 pN | not present |
